What was measured:
[1] = DRUGMATRIX: Glutamate, AMPA radioligand binding (ligand: [3H] AMPA); format: cell membranes, Rattus norvegicus, Wistar, Cerebral cortex, Membrane; settings: Not Active = under 50% inhibition at 10 µM
[2] = DRUGMATRIX: ATPase, Na+/K+ enzyme inhibition (substrate: ATP); format: tissue-based, Sus scrofa, Heart; settings: Not Active = under 50% inhibition at 10 µM
[3] = DRUGMATRIX: Tumor Necrosis Factor (TNF), Non-Selective radioligand binding (ligand: [125I] TNF-alpha); format: cell membranes, Membrane; settings: u-937; Not Active = under 50% inhibition at 10 µM
Substance-K receptor = target: T1, Substance-K receptor (Homo sapiens, UniProt P21452); format: cell membranes, CHO, Membrane; settings: cho; further: in other assays of this panel Not Active means under 50% inhibition at 10 µM
T1 sequence (P21452 whole entry): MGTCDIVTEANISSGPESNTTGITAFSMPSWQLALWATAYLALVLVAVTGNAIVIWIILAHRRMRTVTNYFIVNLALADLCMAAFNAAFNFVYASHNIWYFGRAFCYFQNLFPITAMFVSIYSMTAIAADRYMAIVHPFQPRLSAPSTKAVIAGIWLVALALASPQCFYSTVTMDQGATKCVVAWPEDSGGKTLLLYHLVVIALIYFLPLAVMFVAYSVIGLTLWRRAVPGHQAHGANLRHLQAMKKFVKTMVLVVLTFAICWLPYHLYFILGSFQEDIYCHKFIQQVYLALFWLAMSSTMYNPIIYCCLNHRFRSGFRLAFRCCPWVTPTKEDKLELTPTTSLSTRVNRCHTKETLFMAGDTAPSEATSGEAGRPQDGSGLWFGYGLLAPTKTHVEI

[4] = DRUGMATRIX: Phorbol Ester radioligand binding (ligand: [3H] PDBu); format: cell membranes, Mus musculus, ICR, Brain, Membrane; settings: Not Active = under 50% inhibition at 10 µM
Cytochrome P450 2A6 = target: T2, Cytochrome P450 2A6 (Homo sapiens, UniProt P11509); settings: bti-tn-5b1-4; further: in other assays of this panel Not Active means under 50% inhibition at 10 µM
T2 sequence (P11509 whole entry): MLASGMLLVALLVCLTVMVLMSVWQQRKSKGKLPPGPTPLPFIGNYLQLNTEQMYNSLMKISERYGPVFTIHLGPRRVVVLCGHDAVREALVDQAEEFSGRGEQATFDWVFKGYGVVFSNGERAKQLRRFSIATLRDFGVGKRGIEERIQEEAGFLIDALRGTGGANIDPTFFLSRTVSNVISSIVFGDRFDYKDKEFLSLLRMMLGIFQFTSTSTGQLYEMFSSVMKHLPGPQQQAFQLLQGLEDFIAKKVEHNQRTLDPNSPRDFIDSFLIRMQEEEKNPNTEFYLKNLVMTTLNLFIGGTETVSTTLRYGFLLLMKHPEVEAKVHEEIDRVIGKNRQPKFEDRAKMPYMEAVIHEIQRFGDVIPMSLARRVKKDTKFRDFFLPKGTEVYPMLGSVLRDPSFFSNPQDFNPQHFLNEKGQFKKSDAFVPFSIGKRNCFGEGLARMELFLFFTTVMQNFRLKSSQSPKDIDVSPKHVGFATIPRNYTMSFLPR

[5] = target: Sigma non-opioid intracellular receptor 1 (Homo sapiens, UniProt Q99720); assay: DRUGMATRIX: Sigma1 radioligand binding (ligand: [3H] Haloperidol); format: cell membranes, Jurkat, Membrane; settings: jurkat; Not Active = under 50% inhibition at 10 µM
Sequence of Sigma non-opioid intracellular receptor 1 (Q99720 whole entry): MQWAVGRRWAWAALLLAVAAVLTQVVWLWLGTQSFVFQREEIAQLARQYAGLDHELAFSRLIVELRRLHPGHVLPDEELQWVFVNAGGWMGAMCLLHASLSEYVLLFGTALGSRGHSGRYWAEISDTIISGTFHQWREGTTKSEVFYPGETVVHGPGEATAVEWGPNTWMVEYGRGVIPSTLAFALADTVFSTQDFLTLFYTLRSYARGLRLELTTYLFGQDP

CC[C@@H](CO)NC(=O)[C@@H]1C=C2c3cccc4[nH]cc(c34)C[C@H]2N(C)C1 [METHYLERGONOVINE]
Not Active: IC50 [1] | Ki [1] | IC50 [2] | Ki [2] | IC50 [3] | Ki [3] | IC50 (Substance-K receptor) | IC50 [4] | Ki [4] | IC50 (Cytochrome P450 2A6) | Ki (Cytochrome P450 2A6) | IC50 [5]

SODIUM NITROPRUSSIDE
Not Active: IC50 [1] | Ki [1] | IC50 [2] | Ki [2] | IC50 [3] | Ki [3] | IC50 (Substance-K receptor) | Ki (Substance-K receptor) | IC50 [4] | Ki [4] | IC50 (Cytochrome P450 2A6) | Ki (Cytochrome P450 2A6) | IC50 [5] | Ki [5]

CO[C@H]1/C=C/O[C@@]2(C)Oc3c(C)c(O)c4c(O)c(c(/C=N/N5CCN(C)CC5)c(O)c4c3C2=O)NC(=O)/C(C)=C\C=C\[C@H](C)[C@H](O)[C@@H](C)[C@@H](O)[C@@H](C)[C@H](OC(C)=O)[C@@H]1C [RIFAMPIN]
Not Active: IC50 [1] | Ki [1] | IC50 [2] | Ki [2] | IC50 [3] | Ki [3] | IC50 (Substance-K receptor) | IC50 [4] | Ki [4] | IC50 (Cytochrome P450 2A6) | Ki (Cytochrome P450 2A6) | IC50 [5]

Cc1oncc1C(=O)Nc1ccc(C(F)(F)F)cc1 [LEFLUNOMIDE]
Not Active: IC50 [1] | Ki [1] | IC50 [2] | Ki [2] | IC50 [3] | Ki [3] | IC50 (Substance-K receptor) | IC50 [4] | Ki [4] | IC50 (Cytochrome P450 2A6) | Ki (Cytochrome P450 2A6) | IC50 [5]

N#CC(C#N)=Cc1ccc(O)c(O)c1 [TYRPHOSTIN 23]
Not Active: IC50 [1] | Ki [1] | IC50 [2] | Ki [2] | IC50 [3] | Ki [3] | IC50 (Substance-K receptor) | IC50 [4] | Ki [4] | IC50 (Cytochrome P450 2A6) | Ki (Cytochrome P450 2A6) | IC50 [5]

Source: ChEMBL document CHEMBL1909046, “DrugMatrix in vitro pharmacology data”
